Measurements published in patent publication US20240285501A1, “HAIR GROWTH AGENT” (ADJUVANT HOLDINGS CO., LTD., priority 2021, published 2024).

Assays:
[1] = system: VEGF gene expression in human dermal papilla cells; experiment: Evaluation of human dermal papilla cell VEGF gene expression (real-time PCR); assay type: cell-based; details: 72 hours, relative to negative control group, GAPDH internal standard, FIG. 1
Procedure: The VEGF gene is expressed in dermal papilla cells, and contributes to expression of such effects as increase in hair shaft diameter and improving maximum hair shaft length and improving hair shaft elongation rate and hair shaft growth promotion at head hair, beard, eyebrows, and/or eyelashes. Human dermal papilla cells were therefore used, and evaluation was carried out with respect to increase in VEGF gene expression for the respective components.
Human dermal papilla cells (Catalog No. CA60205a; derived from person; Toyobo Co., Ltd. (Japan)) were purchased, testing and evaluation being carried out with maintenance and culture of cells being performed as described in the protocol.
As drugs for testing, drug solutions of the following respective concentrations (final concentrations) were prepared and used. • Comparative Example 1: 100 μM adenosine • Working Example 1: 0.3125 μM phytosphingosine • Working Example 2: 1.25 μM phytosphingosine • Working Example 3: Liquid mixture of 100 μM adenosine and 1.25 μM phytosphingosine
A 24-well plate was seeded with human dermal papilla cells so as to obtain 6×10^3 thereof per well. […] The GAPDH gene was used as an internal standard, the amount of VEGF gene expression being calculated relative to the negative control group. […]
300 μL of lysis buffer RL was added thereto per well, and the cells were lysed by pipetting. […] Concentration of the recovered RNA was measured using a NanoDrop Lite (Catalog No. ND-LITE; Thermo Fisher Scientific K.K.), and this was stored at −80° C. until the following cDNA creation procedure.
A FastGene scriptase II cDNA synthesis 5× Ready Mix (Catalog No. NE-LS64; Nippon Genetics Co., Ltd. (Japan)) was used to synthesize cDNA. Dilution with RNase Free Water was carried out so as to cause concentration of total RNA produced in a new tube to be […], 4 μL of FastGene scriptase II cDNA synthesis 5× Ready Mix was added to 16 μL of this sample solution, and this was agitated by vortexing. […]

[2] = system: vascular endothelial growth factor (VEGF) expression in human dermal papilla cells; details: cited from earlier work

CCCCCCCCCCCCCC[C@@H](O)[C@@H](O)[C@@H](N)CO [Working Example 1, phytosphingosine]
change in amount of expression of the VEGF gene [1]: increase in dosage-dependent fashion in the amount of expression of the VEGF gene as compared with the control group

CCCCCCCCCCCCCC[C@@H](O)[C@@H](O)[C@@H](N)CO [Working Example 2, phytosphingosine]
change in amount of expression of the VEGF gene [1]: increase in dosage-dependent fashion in the amount of expression of the VEGF gene as compared with the control group

Nc1ncnc2c1ncn2[C@@H]1O[C@H](CO)[C@@H](O)[C@H]1O [adenosine]
expression of vascular endothelial growth factor (VEGF) [2]: promotes expression of vascular endothelial growth factor (VEGF)

CCCCCCCCCCCCCC[C@@H](O)[C@@H](O)[C@@H](N)CO [phytosphingosine]
change in amount of expression of the VEGF gene [1]: significantly greater than that which was produced as a result of action of adenosine
